According to PMC12344683, “N-alkyl and N-benzyl indoles are anti-SARS-CoV-2 agents and nsp13 inhibitors” (Journal of Enzyme Inhibition and Medicinal Chemistry, 2025):

Experiments:
SARS-CoV-2 nsp13 [1] = target: T1, SARS-CoV-2 nsp13 (Severe acute respiratory syndrome coronavirus 2, UniProt P0DTD1); assay: SARS-CoV-2 nsp13 ATPase-associated activity (Biomol Green, BSA-TCEP); type: biochemical; details: for IC50: SARS-CoV-2 nsp13-associated ATPase activity, from dose-response curves; for remaining activity at 30 µM: read-out: Percentage of enzymatic residual activity (ATPase)
SARS-CoV-2 nsp13 [2] = target: T1, SARS-CoV-2 nsp13; assay: SARS-CoV-2 nsp13 unwinding-associated activity (fluorescence, BSA-TCEP); type: biochemical; details: for IC50: SARS-CoV-2 nsp13-associated unwinding activity, from dose-response curves; for remaining activity at 30 µM: read-out: Percentage of enzymatic residual activity (unwinding)
[3] = Cellular toxicity assay (GFP signal as viability); type: cell-based; details: African green monkey; Vero cells; read-out: CC50, concentration required to reduce Vero cells viability by 50%
Protocol: Vero E6-green fluorescent protein (GFP) cells (Janssen Pharmaceutical were maintained in Dulbecco’s modified Eagle’s medium (DMEM, Gibco) supplemented with 10% v/v foetal beef serum (FBS, Gibco), 0.075% Sodium Bicarbonate (7.5% solution, Gibco) and 1X Pen-strep (Euroclone) and kept under 5% CO2 on 37 ◦C. The cells were seeded at 10 000 cells/well in 96-well black cell-treated plates (PerkinElmer). The following day, cells were incubated with the control compounds at different concentrations. Compound was dissolved in 0.1% DMSO. Seventy-two hours post infection the GPF signal, as direct index of cellular viability, was quantified by measuring the total-well fluorescence with a Victor 3 multiplate reader (PerkinElmer) set to excitation and emission wavelengths of 485 and 535 nm, respectively.
The percentage of induced cytopathic effects (CPE) was calculated considering the mock as 100% of cell viability, and the readout from empty wells as blank. The compound half-maximal cytopathic concentration (CC50), was determined via non-linear regression by using on Prism 9 v. 9.4.1 software (GraphPad) the built-in function dose-response inhibition, log-concentration-normalized response. Experimental points represent the average and standard deviation of at least two sets of independent triplicates.

[4] = read-out: Activity in enzyme assay IC50 ATPase BSA-TCEP
[5] = read-out: Activity in enzyme assay IC50 Unwinding BSA-TCEP
[6] = Activity in enzyme assay IC50 ATPase BSA-TCEP
[7] = Activity in enzyme assay IC50 Unwinding BSA-TCEP

Compound	IC50 (SARS-CoV-2 nsp13 [1]; [4]) [µM]	IC50 (SARS-CoV-2 nsp13 [2]; [5]) [µM]	also measured
CCOC(=O)/C(O)=C/C(=O)/C=C/c1cn(Cc2ccc(C(C)C)cc2)c2ccccc12 [6c]	5.8 ± 0.12	5.81 ± 0.47	–
CCOC(=O)/C(O)=C/C(=O)c1cn(Cc2ccc(C)cc2)c2ccccc12 [8b]	–	–	IC50 (SARS-CoV-2 nsp13 [1]; [6]): 7.01 ± 0.05 µM; IC50 (SARS-CoV-2 nsp13 [2]; [7]): 13.2 ± 2.76 µM
CC[C@@]1(O)C(=O)OCc2c1cc1n(c2=O)Cc2cc3ccccc3nc2-1 [Camptothecin, reference compound]	–	–	CC50 at 72 h [3]: 11.1 ± 0.16 µM
C/C=C/Cn1cc(/C=C/C(=O)/C=C(\O)C(=O)OCC)c2ccccc21 [10a, Ethyl (2Z,5E)-6-(1-((E)-but-2-en-1-yl)-1H-indol-3-yl)-2-hydroxy-4-oxohexa-2,5-dienoate]	8.79 ± 0.69	13.2 ± 1.86	–
CCOC(=O)/C(O)=C/C(=O)/C=C/c1cn(C=C(C)C)c2ccccc12 [10c, Ethyl (2Z,5E)-2-hydroxy-6-(1-(2-methylprop-1-en-1-yl)-1H-indol-3-yl)-4-oxohexa-2,5-dienoate]	4.93 ± 1.4	19.3 ± 0.76	–
Cc1ccc(Cn2cc(C(=O)/C=C(\O)C(=O)O)c3ccccc32)cc1 [7b]	–	–	IC50 (SARS-CoV-2 nsp13 [1]; [6]): 8.33 ± 0.45 µM; IC50 (SARS-CoV-2 nsp13 [2]; [7]): 20.6 ± 3.22 µM
CCOC(=O)/C(O)=C/C(=O)/C=C/c1cn(Cc2ccc(OC(F)(F)F)cc2)c2ccccc12 [6e]	2.17 ± 0.26	5.66 ± 0.21	CC50 at 72 h [3]: > 100 µM
CCOC(=O)/C(O)=C/C(=O)/C=C/c1cn(CC)c2ccccc12 [10d]	18.5 ± 0.65	11.8 ± 4.03	–
CC(C)=Cn1cc(/C=C/C(=O)/C=C(\O)C(=O)O)c2ccccc21 [9c, (2Z,5E)-2-hydroxy-6-(1-(2-methylprop-1-en-1-yl)-1H-indol-3-yl)-4-oxohexa-2,5-dienoic acid]	> 30	1.56 ± 0.16	CC50 at 72 h [3]: > 100 µM; remaining activity at 30 µM (SARS-CoV-2 nsp13 [1]; measured at 30 µM): 98.6%
CCOC(=O)/C(O)=C/C(=O)/C=C/c1cn(CCC(C)C)c2ccccc12 [10f, Ethyl (2Z,5E)-2-hydroxy-6-(1-isopentyl-1H-indol-3-yl)-4-oxohexa-2,5-dienoate]	6.27 ± 0.2	13.5 ± 0.25	–
CCOC(=O)/C(O)=C/C(=O)c1cn(Cc2ccccc2)c2ccccc12 [8j, Ethyl (Z)-4-(1-benzyl-1H-indol-3-yl)-2-hydroxy-4-oxobut-2-enoate]	–	–	IC50 (SARS-CoV-2 nsp13 [1]; [6]): 14.5 ± 1.49 µM; IC50 (SARS-CoV-2 nsp13 [2]; [7]): 26 ± 0.89 µM
C=C(C)Cn1cc(/C=C/C(=O)/C=C(\O)C(=O)O)c2ccccc21 [9b, (2Z,5E)-2-hydroxy-6-(1-(2-methylallyl)-1H-indol-3-yl)-4-oxohexa-2,5-dienoic acid]	> 30	> 30	remaining activity at 30 µM (SARS-CoV-2 nsp13 [1]; measured at 30 µM): 68%; remaining activity at 30 µM (SARS-CoV-2 nsp13 [2]; measured at 30 µM): 72%
CCOC(=O)/C(O)=C/C(=O)/C=C/c1cn(Cc2ccc(OC)cc2)c2ccccc12 [6a, Ethyl (2Z,5E)-2-hydroxy-6-(1-(4-methoxybenzyl)-1H-indol-3-yl)-4-oxohexa-2,5-dienoate]	2.21 ± 0.26	6.65 ± 1.2	–
C=C(C)Cn1cc(/C=C/C(=O)/C=C(\O)C(=O)OCC)c2ccccc21 [10b, Ethyl (2Z,5E)-2-hydroxy-6-(1-(2-methylallyl)-1H-indol-3-yl)-4-oxohexa-2,5-dienoate]	7.26 ± 0.65	21.5 ± 0.23	–
CCOC(=O)/C(O)=C/C(=O)/C=C/c1cn(Cc2ccc(C#N)cc2)c2ccccc12 [6g, Ethyl (2Z,5E)-6-(1-(4-cyanobenzyl)-1H-indol-3-yl)-2-hydroxy-4-oxohexa-2,5-dienoate]	6.24 ± 0.24	6.76 ± 1.18	–
O=C(/C=C(\O)C(=O)O)/C=C/c1cn(Cc2ccc(F)cc2)c2ccc(Cl)cc12 [5i, (2Z,5E)-6-(5-chloro-1-(4-fluorobenzyl)-1H-indol-3-yl)-2-hydroxy-4-oxohexa-2,5-dienoic acid]	26.3 ± 2.52	0.47 ± 0.01	CC50 at 72 h [3]: > 100 µM; selectivity for unwinding over ATPase (SARS-CoV-2 nsp13 [2]; IC50 unwinding vs IC50 ATPase): 2 order of magnitude; gain in activity on unwinding with respect to the hit 4 (SARS-CoV-2 nsp13 [2]; ratio of IC50 values): 27 fold
COc1ccc(Cn2cc(/C=C/C(=O)/C=C(\O)C(=O)O)c3ccccc32)cc1 [5a, (2Z,5E)-2-hydroxy-6-(1-(4-methoxybenzyl)-1H-indol-3-yl)-4-oxohexa-2,5-dienoic acid]	19.9 ± 0.73	10.5 ± 0.81	–
O=C(/C=C(\O)C(=O)O)/C=C/c1cn(Cc2ccc(O)cc2)c2ccccc12 [5h, (2Z,5E)-2-hydroxy-6-(1-(4-hydroxybenzyl)-1H-indol-3-yl)-4-oxohexa-2,5-dienoic acid]	9.1 ± 3.4	2.77 ± 0.42	–
O=C(/C=C(\O)C(=O)O)/C=C/c1cn(Cc2ccc(F)cc2)c2ccccc12 [5d, (2Z,5E)-6-(1-(4-fluorobenzyl)-1H-indol-3-yl)-2-hydroxy-4-oxohexa-2,5-dienoic acid]	9.91 ± 0.5	7.63 ± 2.48	–
O=C(/C=C(\O)C(=O)O)/C=C/c1cn(S(=O)(=O)c2ccccc2)c2ccccc12 [5f]	5.36 ± 0.74	7.54 ± 0.76	–

Compound	IC50 (SARS-CoV-2 nsp13 [1]; [4]) [µM]	IC50 (SARS-CoV-2 nsp13 [2]; [5]) [µM]	also measured
Cc1ccc(Cn2cc(/C=C/C(=O)/C=C(\O)C(=O)O)c3ccccc32)cc1 [5b]	3.83 ± 0.45	13.6 ± 1.96	–
CCCCn1cc(/C=C/C(=O)/C=C(\O)C(=O)OCC)c2ccccc21 [10e, Ethyl (2Z,5E)-6-(1-butyl-1H-indol-3-yl)-2-hydroxy-4-oxohexa-2,5-dienoate]	5.72 ± 1.63	14.8 ± 1.18	–
O=C(O)/C(O)=C/C(=O)c1cn(Cc2ccc(F)cc2)c2ccccc12 [7d, (Z)-4-(1-(4-fluorobenzyl)-1H-indol-3-yl)-2-hydroxy-4-oxobut-2-enoic acid]	–	–	IC50 (SARS-CoV-2 nsp13 [1]; [6]): > 30 µM; remaining activity at 30 µM (SARS-CoV-2 nsp13 [1]): 70%; IC50 (SARS-CoV-2 nsp13 [2]; [7]): > 30 µM; remaining activity at 30 µM (SARS-CoV-2 nsp13 [2]): 50%
C/C=C/Cn1cc(/C=C/C(=O)/C=C(\O)C(=O)O)c2ccccc21 [9a, (2Z,5E)-6-(1-((E)-but-2-en-1-yl)-1H-indol-3-yl)-2-hydroxy-4-oxohexa-2,5-dienoic acid]	> 30	19.4 ± 3.7	remaining activity at 30 µM (SARS-CoV-2 nsp13 [1]; measured at 30 µM): 70%
O=C(/C=C(\O)C(=O)O)/C=C/c1cn(Cc2ccc(OC(F)(F)F)cc2)c2ccccc12 [5e]	6.41 ± 0.05	6.24 ± 0.24	CC50 at 72 h [3]: > 100 µM
CCOC(=O)/C(O)=C/C(=O)/C=C/c1cn(Cc2ccc(F)cc2)c2ccccc12 [6d, Ethyl (2Z,5E)-6-(1-(4-fluorobenzyl)-1H-indol-3-yl)-2-hydroxy-4-oxohexa-2,5-dienoate]	3.22 ± 0.14	3.64 ± 0.11	–
CCOC(=O)/C(O)=C/C(=O)c1cn(Cc2ccc(OC(F)(F)F)cc2)c2ccccc12 [8e]	–	–	IC50 (SARS-CoV-2 nsp13 [1]; [6]): 2.29 ± 0.02 µM; IC50 (SARS-CoV-2 nsp13 [2]; [7]): 11.3 ± 0.65 µM
COc1ccc(Cn2cc(C(=O)/C=C(\O)C(=O)O)c3ccccc32)cc1 [7a]	–	–	IC50 (SARS-CoV-2 nsp13 [1]; [6]): > 30 µM; remaining activity at 30 µM (SARS-CoV-2 nsp13 [1]): 73.4%; IC50 (SARS-CoV-2 nsp13 [2]; [7]): > 30 µM; remaining activity at 30 µM (SARS-CoV-2 nsp13 [2]): 50.4%
CCOC(=O)/C(O)=C/C(=O)c1cn(Cc2ccc(C(C)C)cc2)c2ccccc12 [8c]	–	–	IC50 (SARS-CoV-2 nsp13 [1]; [6]): 9.64 ± 2.27 µM; IC50 (SARS-CoV-2 nsp13 [2]; [7]): 9.66 ± 2.89 µM
CC(C)c1ccc(Cn2cc(C(=O)/C=C(\O)C(=O)O)c3ccccc32)cc1 [7c]	–	–	IC50 (SARS-CoV-2 nsp13 [1]; [6]): 13 ± 1.08 µM; IC50 (SARS-CoV-2 nsp13 [2]; [7]): 14.1 ± 0.48 µM
CCOC(=O)/C(O)=C/C(=O)/C=C/c1cn(Cc2ccc(C)cc2)c2ccccc12 [6b]	2.88 ± 0.59	7.34 ± 1.81	–
CCCCn1cc(/C=C/C(=O)/C=C(\O)C(=O)O)c2ccccc21 [9e, (2Z,5E)-6-(1-butyl-1H-indol-3-yl)-2-hydroxy-4-oxohexa-2,5-dienoic acid]	> 30	–	remaining activity at 30 µM (SARS-CoV-2 nsp13 [1]; measured at 30 µM): 100%; remaining activity at 30 µM (SARS-CoV-2 nsp13 [2]; measured at 30 µM): 41%
CCOC(=O)/C(O)=C/C(=O)c1cn(Cc2ccc(OC)cc2)c2ccccc12 [8a]	–	–	IC50 (SARS-CoV-2 nsp13 [1]; [6]): 8.06 ± 1.78 µM; IC50 (SARS-CoV-2 nsp13 [2]; [7]): 13.1 ± 1.78 µM
CC(C)CCn1cc(/C=C/C(=O)/C=C(\O)C(=O)O)c2ccccc21 [9f, (2Z,5E)-2-hydroxy-6-(1-isopentyl-1H-indol-3-yl)-4-oxohexa-2,5-dienoic acid]	23.1 ± 1.41	15.9 ± 0.59	–
CCOC(=O)/C(O)=C/C(=O)/C=C/c1cn(Cc2ccc(O)cc2)c2ccccc12 [6h, Ethyl (2Z,5E)-2-hydroxy-6-(1-(4-hydroxybenzyl)-1H-indol-3-yl)-4-oxohexa-2,5-dienoate]	3.7 ± 0.74	15.4 ± 1.47	–
CCOC(=O)/C(O)=C/C(=O)/C=C/c1cn(Cc2ccc(F)cc2)c2ccc(Cl)cc12 [6i, Ethyl (2Z,5E)-6-(5-chloro-1-(4-fluorobenzyl)-1H-indol-3-yl)-2-hydroxy-4-oxohexa-2,5-dienoate]	3.92 ± 0.96	5.22 ± 0.44	–
O=C(O)/C(O)=C/C(=O)c1cn(Cc2ccccc2)c2ccccc12 [7j, (Z)-4-(1-benzyl-1H-indol-3-yl)-2-hydroxy-4-oxobut-2-enoic acid]	–	–	IC50 (SARS-CoV-2 nsp13 [1]; [6]): 10.3 ± 1.75 µM; IC50 (SARS-CoV-2 nsp13 [2]; [7]): 30 ± 1.5 µM
O=C(O)/C(O)=C/C(=O)c1cn(Cc2ccc(OC(F)(F)F)cc2)c2ccccc12 [7e]	–	–	IC50 (SARS-CoV-2 nsp13 [1]; [6]): 20.3 µM; IC50 (SARS-CoV-2 nsp13 [2]; [7]): 22.2 ± 1.37 µM
CCn1cc(/C=C/C(=O)/C=C(\O)C(=O)O)c2ccccc21 [9d]	8.32 ± 0.08	11.8 ± 4.03	–
CCOC(=O)/C(O)=C/C(=O)/C=C/c1cn(S(=O)(=O)c2ccccc2)c2ccccc12 [6f]	7.07 ± 0.74	11 ± 0.37	–
